Data on 29 molecules can be found in ChEMBL document CHEMBL1128353, “A novel approach to dual-acting thromboxane receptor antagonist/synthase inhibitors based on the link of 1,3-dioxane-thromboxane receptor antagonists and -thromboxane synthase inhibitors” (J Med Chem, 1995).

The species entered for one experiment is Homo sapiens. Put plainly: Antagonistic activity against human platelet aggregation induced by U-46,619. Type of experiment: functional, organism-based. Particulars: read-out: pA2 (converted).
The next experiment deals with T1, Thromboxane-A synthase (Homo sapiens, UniProt P24557).
T1 sequence (P24557 whole entry): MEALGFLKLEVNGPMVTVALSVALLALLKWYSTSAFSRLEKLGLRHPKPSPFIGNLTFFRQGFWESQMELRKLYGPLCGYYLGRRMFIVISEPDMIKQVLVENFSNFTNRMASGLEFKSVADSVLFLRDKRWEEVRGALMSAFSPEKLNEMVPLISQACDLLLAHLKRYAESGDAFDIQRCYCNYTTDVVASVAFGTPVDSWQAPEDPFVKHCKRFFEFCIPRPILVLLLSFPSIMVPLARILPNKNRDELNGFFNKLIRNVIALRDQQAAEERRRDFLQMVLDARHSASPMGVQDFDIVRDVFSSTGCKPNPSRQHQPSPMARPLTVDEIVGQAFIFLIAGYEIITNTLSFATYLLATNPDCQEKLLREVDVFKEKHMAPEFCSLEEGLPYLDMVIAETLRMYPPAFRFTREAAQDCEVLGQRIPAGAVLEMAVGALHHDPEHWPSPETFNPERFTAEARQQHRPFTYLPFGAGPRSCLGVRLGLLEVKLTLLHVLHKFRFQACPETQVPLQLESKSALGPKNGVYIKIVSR
Nature of the experiment: In vitro inhibitory activity against human microsomal thromboxane synthase.

Experiment [1] has as its system Rattus norvegicus. Put plainly: Compound at an oral dose of 10 mg/Kg was tested ex vivo after 1 hr for inhibition of thromboxane synthase in rat. Format: functional.
Experiment [2] has as its system Rattus norvegicus. Nature of the experiment: Compound at an oral dose of 10 mg/Kg was tested ex vivo after 5 hr for inhibition of thromboxane synthase in rat. Format: functional.
The test system of experiment [3] is Rattus norvegicus. Nature of the experiment: Compound at an oral dose of 10 mg/Kg was tested ex vivo after 3 hr for inhibition of thromboxane synthase in rat. Format: functional.
Experiment [4] has as its system Canis familiaris. Nature of the experiment: Compound at an oral dose of 1 mg/Kg was tested ex vivo after 1 hr for inhibition of thromboxane synthase in dog. Format: functional. The conditions noted are these: Canis lupus familiaris.
The subject of experiment [5] is Canis familiaris. Nature of the experiment: Compound at an oral dose of 1 mg/Kg was tested ex vivo after 5 hr for inhibition of thromboxane synthase in dog. Type of experiment: functional. Particulars: Canis lupus familiaris.
In experiment [6] the test system is Canis familiaris. Put plainly: Compound at an oral dose of 1 mg/Kg was tested ex vivo after 3 hr for inhibition of thromboxane synthase in dog. The conditions noted are these: Canis lupus familiaris. Type of experiment: functional.
Experiment [7] concerns Rattus norvegicus. Put plainly: Compound at an oral dose of 10 mg/Kg was tested ex vivo in rat after 5 hr against platelet aggregation induced by U-46,619. The conditions noted are these: read-out: pA2 (converted). Format: functional, organism-based.

`O=C(O)CC/C=C\C[C@@H]1CO[C@H](c2ccc(OCCn3ccnc3)c(C(=O)O)c2)O[C@@H]1c1ccccc1O`: the Kb in the experiment filed under Homo sapiens is 1260 nM. Moreover, 3800 nM corresponded to half-maximal inhibition on Thromboxane-A synthase (IC50).

With `O=C(O)CC/C=C\C[C@@H]1CO[C@H](c2cccc(OCCOc3ccc(/C(=C\CCCCC(=O)O)c4cccnc4)cc3)c2)O[C@@H]1c1ccccc1O`, in the experiment listed under Homo sapiens, the Kb is 794 nM. On Thromboxane-A synthase, the half-inhibitory concentration (IC50) – broadly, the concentration at which inhibition is half-maximal – was 40 nM.

On to `O=C(O)CC/C=C\C[C@@H]1CO[C@H](c2cccc(COc3ccc(/C(=C\CCCCC(=O)O)c4cccnc4)cc3)c2)O[C@@H]1c1ccccc1O`, for which, in the experiment listed under Homo sapiens, the Kb was 200 nM. On Thromboxane-A synthase, this molecule registered an IC50 of 40 nM.

With `CC(C)(CCCCCc1ccc(/C(=C\CCCCC(=O)O)c2cccnc2)cc1)[C@H]1OC[C@@H](C/C=C\CCC(=O)O)[C@@H](c2ccccc2O)O1`, the Kb in the experiment filed under Homo sapiens was 501 nM. At Thromboxane-A synthase, this molecule yielded an IC50 of 10 nM.

With `O=C(O)CC/C=C\C[C@@H]1CO[C@H](c2cncc(/C(=C\CCCCC(=O)O)c3ccccc3)c2)O[C@@H]1c1ccccc1O`, the Kb in the experiment filed under Homo sapiens was 25.1 nM. For the same molecule, the half-inhibitory concentration (IC50) on Thromboxane-A synthase was > 10000 nM.

On to `O=C(O)CC/C=C\C[C@@H]1CO[C@H](c2ccc(OCCOc3cc(C(=O)O)ccc3OCCn3ccnc3)cc2)O[C@@H]1c1ccccc1O`, for which the Kb in the experiment filed under Homo sapiens is 501 nM. In addition, at Thromboxane-A synthase, the IC50 is 60 nM.

As for `O=C(O)CC/C=C\C[C@@H]1CO[C@H](c2cccc(OCCCCCCOc3ccc(/C(=C\CCCCC(=O)O)c4cccnc4)cc3)c2)O[C@@H]1c1ccccc1O`, in the experiment filed under Homo sapiens, the Kb is 100 nM. In addition, at Thromboxane-A synthase, half-maximal inhibition (IC50) was put at 70 nM.

For the molecule `O=C(O)CC/C=C\C[C@@H]1CO[C@H](COc2cc(C(=O)O)ccc2OCCn2ccnc2)O[C@@H]1c1ccccc1O`, in the experiment listed under Homo sapiens, the Kb is 3160 nM. The concentration for half-maximal inhibition (IC50) on Thromboxane-A synthase amounted to 1700 nM.

On to `O=C(O)CCCC/C=C(\c1ccccc1)c1cccnc1` [(E)-ISBOGREL], for which the inhibition in vivo – broadly, how much of the control response was suppressed – at 10 mg/kg in the experiment with Rattus norvegicus [1] came out at 97%; in the experiment with Rattus norvegicus [2], 87%; with Rattus norvegicus [3] it was 97%. Moreover, the inhibition in vivo at 1 mg/kg in the experiment with Canis familiaris [4] is 93%; with Canis familiaris [5], 82%; in the experiment on Canis familiaris [6], 83%. Also, in the experiment filed under Homo sapiens, the Kb was > 10000 nM.

Consider `O=C(O)CC/C=C\C[C@@H]1CO[C@H](c2cncc(/C(=C/CCCCC(=O)O)c3ccccc3)c2)O[C@@H]1c1ccccc1O`, for which the Kb in the experiment listed under Homo sapiens is 39.8 nM. Moreover, the concentration for half-maximal inhibition (IC50) on Thromboxane-A synthase was > 10000 nM.

As to `O=C(O)CC/C=C\C[C@@H]1CO[C@H](CCOc2ccc(/C(=C\CCCCC(=O)O)c3cccnc3)cc2)O[C@@H]1c1ccccc1O`, the Kb in the experiment filed under Homo sapiens is 200 nM. The same molecule gave an IC50 at Thromboxane-A synthase of 30 nM.

As to `O=C(O)CC/C=C\C[C@@H]1CO[C@H](c2ccc3cc(/C(=C\CCCCC(=O)O)c4cccnc4)ccc3c2)O[C@@H]1c1ccccc1O`, in the experiment filed under Homo sapiens, the Kb is 251 nM. For the same molecule, at Thromboxane-A synthase, half-maximal inhibition (IC50) was put at 50 nM.

Consider `CC(C)(CCCCOc1ccc(/C(=C\CCCCC(=O)O)c2cccnc2)cc1)[C@H]1OC[C@@H](C/C=C\CCC(=O)O)[C@@H](c2ccccc2O)O1`, for which the Kb in the experiment listed under Homo sapiens was 251 nM. Moreover, at Thromboxane-A synthase, the IC50 worked out at 30 nM.

Consider `O=C(O)c1ccc(OCCn2ccnc2)cc1` [DAZOXIBEN], for which the inhibition in vivo at 10 mg/kg in the experiment on Rattus norvegicus [1] is 86%; in the experiment on Rattus norvegicus [3], 87%. Also, the inhibition in vivo at 1 mg/kg in the experiment on Canis familiaris [4] amounted to 73%; with Canis familiaris [5], 77%; with Canis familiaris [6], 91%. Further, in the experiment filed under Homo sapiens, the Kb is > 10000 nM.

For the molecule `O=C(O)CC/C=C\C[C@@H]1CO[C@H](c2ccc(COc3ccc(/C(=C\CCCCC(=O)O)c4cccnc4)cc3)cc2)O[C@@H]1c1ccccc1O`, in the experiment filed under Homo sapiens, the Kb is 200 nM. The IC50 at Thromboxane-A synthase worked out at 20 nM.

With `O=C(O)CC/C=C\C[C@@H]1CO[C@H](CCCCCOc2cc(C(=O)O)ccc2OCCn2ccnc2)O[C@@H]1c1ccccc1O`, in the experiment listed under Homo sapiens, the Kb is 1260 nM. Besides, on Thromboxane-A synthase, the IC50 amounted to 60 nM.

With `O=C(O)CC/C=C\C[C@@H]1CO[C@H](c2ccc(OCCCCCCOc3cc(C(=O)O)ccc3OCCn3ccnc3)cc2)O[C@@H]1c1ccccc1O`, the Kb in the experiment filed under Homo sapiens was 158 nM. Moreover, the IC50 against Thromboxane-A synthase was found to be 40 nM.

For `O=C(O)CC/C=C\C[C@@H]1CO[C@H](CCCCCOc2ccc(/C(=C\CCCCC(=O)O)c3cccnc3)cc2)O[C@@H]1c1ccccc1O`, in the experiment listed under Homo sapiens, the Kb is 200 nM. For the same molecule, the concentration for half-maximal inhibition (IC50) against Thromboxane-A synthase was 10 nM.

Consider `O=C(O)CC/C=C\C[C@@H]1CO[C@H](c2cccc(OCCOc3cc(C(=O)O)ccc3OCCn3ccnc3)c2)O[C@@H]1c1ccccc1O`, for which, in the experiment listed under Homo sapiens, the Kb is 158 nM. On Thromboxane-A synthase, this molecule had a half-maximal inhibitory concentration (IC50) of 30 nM.

Turning to `O=C(O)CC/C=C\C[C@@H]1CO[C@H](c2ccc(OCCOc3ccc(/C(=C\CCCCC(=O)O)c4cccnc4)cc3)cc2)O[C@@H]1c1ccccc1O`, the Kb in the experiment listed under Homo sapiens is 631 nM. On Thromboxane-A synthase, this molecule gave a concentration for half-maximal inhibition (IC50) of 50 nM.

In the case of `O=C(O)CC/C=C\C[C@@H]1CO[C@H](c2ccc(CCOc3ccc(/C(=C\CCCCC(=O)O)c4cccnc4)cc3)cc2)O[C@@H]1c1ccccc1O`, the Kb in the experiment filed under Homo sapiens is 631 nM. This molecule also came in with a concentration for half-maximal inhibition (IC50) against Thromboxane-A synthase of 50 nM.

Turning to `CC(C)(c1ccc(/C(=C\CCCCC(=O)O)c2cccnc2)cc1)[C@H]1OC[C@@H](C/C=C\CCC(=O)O)[C@@H](c2ccccc2O)O1`, the Kb in the experiment filed under Homo sapiens was 251 nM. The same molecule came in with an IC50 on Thromboxane-A synthase of 30 nM.

Take `O=C(O)CC/C=C\C[C@@H]1CO[C@H](c2ccccc2Cl)O[C@@H]1c1ccccc1O`: the results for the Kb in the experiment with Rattus norvegicus [7] and in the experiment filed under Homo sapiens were 100 nM and 3.16 nM, respectively. Also, on Thromboxane-A synthase, the concentration for half-maximal inhibition (IC50) was > 100000 nM.

Turning to `O=C(O)CC/C=C\C[C@@H]1CO[C@H](c2ccc(/C(=C\CCCCC(=O)O)c3cccnc3)cc2)O[C@@H]1c1ccccc1O`, the Kb in the experiment filed under Homo sapiens is 100 nM. Moreover, on Thromboxane-A synthase, the midpoint of inhibition, the IC50, lay at 40 nM.

As for `O=C(O)CC/C=C\C[C@@H]1CO[C@H](CCCCCCCCCCOc2ccc(/C(=C\CCCCC(=O)O)c3cccnc3)cc2)O[C@@H]1c1ccccc1O`, the Kb in the experiment filed under Homo sapiens is 2510 nM. Moreover, inhibition against Thromboxane-A synthase was half-maximal at 40 nM (IC50).

On to `O=C(O)CC/C=C\C[C@@H]1CO[C@H](c2ccccc2OCCOc2cc(C(=O)O)ccc2OCCn2ccnc2)O[C@@H]1c1ccccc1O`, for which the Kb in the experiment filed under Homo sapiens is 1260 nM. 30 nM corresponded to half-maximal inhibition at Thromboxane-A synthase (IC50).

As to `O=C(O)CC/C=C\C[C@@H]1CO[C@H](c2ccccc2OCCOc2ccc(/C(=C\CCCCC(=O)O)c3cccnc3)cc2)O[C@@H]1c1ccccc1O`, the Kb in the experiment filed under Homo sapiens was 158 nM. Besides, on Thromboxane-A synthase, the concentration for half-maximal inhibition (IC50) came to 30 nM.

Regarding `O=C(O)CC/C=C\C[C@@H]1CO[C@H](c2ccc(COc3cccc(/C(=C\CCCCC(=O)O)c4cccnc4)c3)cc2)O[C@@H]1c1ccccc1O`, the Kb in the experiment filed under Homo sapiens was 100 nM. The molecule also returned an IC50 against Thromboxane-A synthase of 10 nM.

Regarding `O=C(O)CC/C=C\C[C@@H]1CO[C@H](C(CCC/C=C(/c2ccccc2)c2cccnc2)C(=O)O)O[C@@H]1c1ccccc1O` (stereo partly drawn), in the experiment listed under Homo sapiens, the Kb is > 10000 nM. For the same molecule, half-maximal inhibition on Thromboxane-A synthase (IC50) was put at 40 nM.
